Columns and labels:
[1] = system: activated partial thromboplastin time; conditions: cited from earlier work
[2] = system: thrombin clotting time in human plasma; test: Thrombin clotting time assay, dabigatran standard curve in human plasma; type: biochemical
Method: Briefly human plasma is obtained by taking whole blood into 3.13% sodium citrate. This is then centrifuged to obtain platelet free plasma and transferred to a separate tube and frozen until required on the day of the assay. Plasma is thawed at 37° C. on the day of the assay.
The thrombin clotting time is performed as follows. First thrombin is diluted to manufacturer's specification (3 IU/mL thrombin) in the buffer provided (Dade Behring Test kit) and prewarmed to 37° C. It is used within 2 hrs of being prepared. All assays were performed on a commercially available CL4 clotting machine (Behnk Electronics, Norderstadt, Germany). Fifty μL of plasma is pipetted into provided cuvettes with a magnetic stirrer and allowed to stir for 2 min in the well preheated to 37° C. in the CL4 machine. At this point 100 μL of the thrombin solution is added and the time required for the plasma sample to clot is recorded automatically by the CL4.

Structure (SMILES) | prolongation of the activated partial thromboplastin time compared with dabigatran [1] | thrombin clotting time ([2]; 200 nM dabigatran preincubated with human plasma) [s] | elevation in clotting time over baseline ([2]; 200 nM dabigatran, human plasma) [fold] | increase in clotting time over baseline ([2]; 500 nM dabigatran, human plasma) [fold]
Cn1c(CNc2ccc(C(=N)N)cc2)nc2cc(C(=O)N(CCC(=O)OC3OC(C(=O)O)C(O)C(O)C3O)c3ccccn3)ccc21 (stereo not shown) [1-O-acylglucuronide] | equipotent prolongation | – | – | –
Cn1c(CNc2ccc(C(=N)N)cc2)nc2cc(C(=O)N(CCC(=O)O)c3ccccn3)ccc21 [dabigatran, N-[2-(4-Amidinophenylaminomethyl)-1-methyl-1H-benzimidazol-5-ylcarbonyl]-N-(2-pyridyl)-beta-alanine] | – | 51 | ~5 | ~10
